Results taken from patent US8440595B2, “Fungicides” (priority 2007, dated 2013).

Columns and labels:
Septoria nodorum = test: leaf disk assay, Septoria nodorum (wheat glume blotch), preventive; type: in vivo; settings: for Efficacy (%): wheat leaf segments, four days after inoculation

SMILES | Efficacy (%) (Septoria nodorum; Concentration 60 ppm) | Efficacy (%) (Septoria nodorum; Concentration 200 ppm) | fungicidal activity against Septoria nodorum compared with the compound from the state of the art (Septoria nodorum; both application rates (200 and 60 ppm)) | melting point
CC#CC(C)(C)NC(=O)C(Oc1cc(Br)c2ncc(I)cc2c1)SC (stereo not drawn) [2(5), 2-(8-bromo-3-iodo-quinolinyl-6-oxy)-2-methylthio-N-(2-methylpent-3-yn-2-yl) acetamide] | 80% | 100% | substantially better fungicidal activity | 161 to 162 °C
CC#CC(C)(C)NC(=O)C(Oc1cc(Br)c2ncc(Br)cc2c1)SC (stereo not drawn) [2 (Table 23), reference compound] | 0% | 0% | – | –
